IC50 data for 21 compounds are collected here from patent publication US20200085791A1, “[(PHENYLSULFONYL)OCTAHYDRO-EPIMINOISOINDOL-YL](1H-1,2,3-TRIAZOL-5-YL)METHANONES” (Bayer Pharma Aktiengesellschaft, priority 2016, published 2020).

The target in this assay is T1, recombinant human AKR1C3 (Aldo-keto reductase family 1 member C3) (Homo sapiens, UniProt P42330).
T1 construct: GST (cleaved yes); made in house; host or cells: E. coli
T1 sequence (P42330 1-323): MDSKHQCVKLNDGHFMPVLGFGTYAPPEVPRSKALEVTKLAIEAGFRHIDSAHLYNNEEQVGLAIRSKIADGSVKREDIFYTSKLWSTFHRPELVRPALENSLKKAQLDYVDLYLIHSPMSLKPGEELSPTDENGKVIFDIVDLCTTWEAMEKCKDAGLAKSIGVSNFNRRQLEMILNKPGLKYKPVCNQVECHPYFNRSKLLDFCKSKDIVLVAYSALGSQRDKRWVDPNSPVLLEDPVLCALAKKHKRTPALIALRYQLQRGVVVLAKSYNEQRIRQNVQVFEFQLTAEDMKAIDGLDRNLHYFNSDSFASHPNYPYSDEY
Nature of the assay: In Vitro Assay 1: AKR1C3-inhibitory activity (Coumberone to Coumberol fluorescence assay). It counts as biochemical. To be noted: recombinant enzyme, Coumberone 0.3 μM, NADPH 10 μM, 15 min pre-incubation, 4-parameter fit; average or median values. How it is done:
In Vitro Assay 1: AKR1C3-Inhibitory Activity
The AKR1C3-inhibitory activity of the substances of the present invention was measured in the AKR1C3 assay described in the paragraphs below.
Essentially, the enzyme activity is measured by quantification of the Coumberol from Coumberone (Halim, M., Yee, D. J., and Sames, D., J. AM. CHEM. SOC. 130, 14123-14128 (2008) and Yee, D. J., Balsanek, V., Bauman, D. R., Penning, T. M., and Sames, D., Proc. Natl. Acad. Sci. USA 103, 13304-13309 (2006)). In this test, the increase of the highly fluorescent Coumberol by NADPH- (nicotinamide adenine dinucleotide phosphate)-dependent reduction of the non-fluorescent Coumberone by AKR1C3 can be determined.
The enzyme used was recombinant human AKR1C3 (Aldo-keto reductase family 1 member C3) (GenBank Accession No. NM_003739). This was expressed in E. coli as GST (glutathione S transferase) fusion protein and purified by glutathione Sepharose affinity chromatography. The GST was removed by digestion with thrombin and subsequent size exclusion chromatography (Dufort, I., Rheault, P., Huang, X F., Soucy, P., and Luu-The, V., Endocrinology 140, 568-574 (1999)).
For the assay, 50 nl of a 100-fold concentrated solution of the test substance in DMSO were pipetted into a black low-volume 384-well microtiter plate (Greiner Bio-One, Frickenhausen, Germany), 2.5 μl of a solution of AKR1C3 in assay buffer [50 mM potassium phosphate buffer pH 7, 1 mM DTT, 0.0022% (w/v) Pluronic F-127, 0.01% BSA (w/v) and protease inhibitor cocktail (Complete, EDTA-free Protease Inhibitor Cocktail from Roche)] were added and the mixture was incubated for 15 min to allow pre-binding of the substances to the enzyme prior to the enzyme reaction. The enzyme reaction was then started by addition of 2.5 μl of a solution of NADPH (20 μM→final concentration in 5 μl of assay volume is 10 μM) and Coumberone (0.6 μM→final concentration in 5 μl of assay volume is 0.3 μM) in assay buffer, and the resulting mixture was incubated at […] for the reaction time of typically 90 min. The concentration of the AKR1C3 and the reaction time was adapted to the respective activity of the enzyme preparation and adjusted such that the assay was carried out in the linear range.
Typical AKR1C3 concentrations were in the region of 1 nM. The reaction was stopped by addition of 2.5 μl of a stop solution consisting of the inhibitor EM-1404 [F. Labrie et al. U.S. Pat. No. 6,541,463, 2003] (3 μM→final concentration in 7.5 μl of assay volume is 1 μM). The fluorescence of the Coumberole was then measured at 520 nm (excitation at 380 nm) using a suitable measuring instrument (Pherastar from BMG Labtechnologies). The intensity of the fluorescence was used as a measure of the amount of Coumberole formed and thus of the enzyme activity of AKR1C3. The data were normalized (enzyme reaction without inhibitor—0% inhibition; all other assay components, but no enzyme=100% inhibition).
As to `Cc1cccc(Cl)c1S(=O)(=O)N1[C@@H]2CC[C@H]1[C@@H]1CN(C(=O)c3cnn[nH]3)C[C@@H]12` [Example 40, {(3aR,4R,7S,7aS)-8-[(2-chloro-6-methylphenyl)sulfonyl]octahydro-2H-4,7-epiminoisoindol-2-yl}(1H-1,2,3-triazol-5-yl)methanone], the IC50 amounted to 3 nM. Consider `O=C(c1cnn[nH]1)N1C[C@@H]2[C@H](C1)[C@@H]1CC[C@H]2N1S(=O)(=O)c1ccc(F)c(F)c1` [Example 25, {(3aR,4S,7R,7aS)-8-[(3,4-difluorophenyl)sulfonyl]octahydro-2H-4,7-epiminoisoindol-2-yl}(1H-1,2,3-triazol-5-yl)methanone], for which the IC50 was found to be 132 nM. For `Nc1cccc(S(=O)(=O)N2[C@@H]3CC[C@H]2[C@@H]2CN(C(=O)c4cnn[nH]4)C[C@@H]23)c1` [Example 69, {(3aR,4R,7S,7aS)-8-[(3-aminophenyl)sulfonyl]octahydro-2H-4,7-epiminoisoindol-2-yl}(1H-1,2,3-triazol-5-yl)methanone], the IC50 stood at 735 nM. As for `COc1ccc(OC)c(S(=O)(=O)N2[C@@H]3CC[C@H]2[C@@H]2CN(C(=O)c4cnn[nH]4)C[C@@H]23)c1` [Example 36, {(3aR,4R,7S,7aS)-8-[(2,5-dimethoxyphenyl)sulfonyl]octahydro-2H-4,7-epiminoisoindol-2-yl}(1H-1,2,3-triazol-5-yl)methanone], the IC50 is 935 nM. As for `O=C(c1cnn[nH]1)N1C[C@@H]2[C@H](C1)[C@H]1CC[C@@H]2N1S(=O)(=O)c1ccccc1` [Example 20, [(3aR,4R,7S,7aS)-8-(phenylsulfonyl)octahydro-2H-4,7-epiminoisoindol-2-yl](1H-1,2,3-triazol-5-yl)methanone], the IC50 amounted to 45 nM. In the case of `COc1cc(C)ccc1S(=O)(=O)N1[C@@H]2CC[C@H]1[C@@H]1CN(C(=O)c3cnn[nH]3)C[C@@H]12` [Example 58, {(3aR,4R,7S,7aS)-8-[(2-methoxy-4-methylphenyl)sulfonyl]octahydro-2H-4,7-epiminoisoindol-2-yl}(1H-1,2,3-triazol-5-yl)methanone], the IC50 came to 110 nM. The same measure for `COc1ccc(C#N)cc1S(=O)(=O)N1[C@@H]2CC[C@H]1[C@@H]1CN(C(=O)c3cnn[nH]3)C[C@@H]12` [Example 66, 4-methoxy-3-{[(3aR,4R,7S,7aS)-2-(1H-1,2,3-triazol-5-ylcarbonyl)octahydro-1H-4,7-epiminoisoindol-8-yl]sulfonyl}benzonitrile]: 625 nM; for `O=C(c1c[nH]nn1)N1C[C@@H]2[C@H](C1)[C@@H]1CC[C@H]2N1S(=O)(=O)c1cccc(Cl)c1F` [Example 6, {(3aR,4S,7R,7aS)-8-[(3-chloro-2-fluorophenyl)sulfonyl]octahydro-2H-4,7-epiminoisoindol-2-yl}(1H-1,2,3-triazol-4-yl)methanone]: 31 nM; for `O=C(c1c[nH]nn1)N1[C@@H]2CC[C@H]1[C@H]1CN(S(=O)(=O)c3ccccc3Cl)C[C@H]12` [Example 9, {(3aR,4S,7R,7aS)-2-[(2-chlorophenyl)sulfonyl]octahydro-1H-4,7-epiminoisoindol-8-yl}(1H-1,2,3-triazol-4-yl)methanone]: 4 nM. As to `O=C(c1c[nH]nn1)N1C[C@@H]2[C@H](C1)[C@@H]1CC[C@H]2N1S(=O)(=O)c1ccc(F)cc1F` [Example 13, {(3aR,4S,7R,7aS)-8-[(2,4-difluorophenyl)sulfonyl]octahydro-2H-4,7-epiminoisoindol-2-yl}(1H-1,2,3-triazol-4-yl)methanone], the IC50 was determined as 102 nM. The same measure for `COc1cc(F)ccc1S(=O)(=O)N1[C@@H]2CC[C@H]1[C@@H]1CN(C(=O)c3cnn[nH]3)C[C@@H]12` [Example 65, {(3aR,4R,7S,7aS)-8-[(4-fluoro-2-methoxyphenyl)sulfonyl]octahydro-2H-4,7-epiminoisoindol-2-yl}(1H-1,2,3-triazol-5-yl)methanone]: 45 nM. Turning to `COc1ccccc1S(=O)(=O)N1[C@@H]2CC[C@H]1[C@H]1CN(C(=O)c3c[nH]nn3)C[C@H]12` [Example 15, {(3aR,4S,7R,7aS)-8-[(2-methoxyphenyl)sulfonyl]octahydro-2H-4,7-epiminoisoindol-2-yl}(1H-1,2,3-triazol-4-yl)methanone], the IC50 was found to be 45 nM. Turning to `O=C(c1cnn[nH]1)N1C[C@@H]2[C@H](C1)[C@H]1CC[C@@H]2N1S(=O)(=O)c1ccc(F)cc1Cl` [Example 39, {(3aR,4R,7S,7aS)-8-[(2-chloro-4-fluorophenyl)sulfonyl]octahydro-2H-4,7-epiminoisoindol-2-yl}(1H-1,2,3-triazol-5-yl)methanone], the IC50 stood at 4 nM.

For `O=C(c1cnn[nH]1)N1C[C@@H]2[C@H](C1)[C@H]1CC[C@@H]2N1S(=O)(=O)c1cccc(Cl)c1Cl` [Example 42, {(3aR,4R,7S,7aS)-8-[(2,3-dichlorophenyl)sulfonyl]octahydro-2H-4,7-epiminoisoindol-2-yl}(1H-1,2,3-triazol-5-yl)methanone], the IC50 was determined as 7 nM. The same measure for `O=C(c1cnn[nH]1)N1C[C@@H]2[C@H](C1)[C@H]1CC[C@@H]2N1S(=O)(=O)c1ccc(Cl)c(Cl)c1` [Example 37, {(3aR,4R,7S,7aS)-8-[(3,4-dichlorophenyl)sulfonyl]octahydro-2H-4,7-epiminoisoindol-2-yl}(1H-1,2,3-triazol-5-yl)methanone]: 82 nM; for `O=C(c1cnn[nH]1)N1C[C@@H]2[C@H](C1)[C@H]1CC[C@@H]2N1S(=O)(=O)c1ccc2c(c1)OCO2` [Example 57, [(3aR,4R,7S,7aS)-8-(1,3-benzodioxol-5-ylsulfonyl)octahydro-2H-4,7-epiminoisoindol-2-yl](1H-1,2,3-triazol-5-yl)methanone]: 267 nM; for `Cc1ccc(Br)cc1S(=O)(=O)N1[C@@H]2CC[C@H]1[C@@H]1CN(C(=O)c3cnn[nH]3)C[C@@H]12` [Example 55, {(3aR,4R,7S,7aS)-8-[(5-bromo-2-methylphenyl)sulfonyl]octahydro-2H-4,7-epiminoisoindol-2-yl}(1H-1,2,3-triazol-5-yl)methanone]: 4 nM. In the case of `COc1ccc(S(=O)(=O)N2[C@@H]3CC[C@H]2[C@@H]2CN(C(=O)c4cnn[nH]4)C[C@@H]23)cc1OC` [Example 41, {(3aR,4R,7S,7aS)-8-[(3,4-dimethoxyphenyl)sulfonyl]octahydro-2H-4,7-epiminoisoindol-2-yl}(1H-1,2,3-triazol-5-yl)methanone], the IC50 came out at 731 nM. The same measure for `O=C(c1c[nH]nn1)N1C[C@@H]2[C@H](C1)[C@@H]1CC[C@H]2N1S(=O)(=O)c1cc(Cl)cc(Cl)c1` [Example 4, {(3aR,4S,7R,7aS)-8-[(3,5-dichlorophenyl)sulfonyl]octahydro-2H-4,7-epiminoisoindol-2-yl}(1H-1,2,3-triazol-4-yl)methanone]: 44 nM; for `O=C(c1c[nH]nn1)N1C[C@@H]2[C@H](C1)[C@@H]1CC[C@H]2N1S(=O)(=O)c1cccc(Cl)c1` [Example 3, {(3aR,4S,7R,7aS)-8-[(3-chlorophenyl)sulfonyl]octahydro-2H-4,7-epiminoisoindol-2-yl}(1H-1,2,3-triazol-4-yl)methanone]: 20 nM; for `Cc1ccc(S(=O)(=O)N2[C@@H]3CC[C@H]2[C@H]2CN(C(=O)c4cnn[nH]4)C[C@H]23)cc1` [Example 21, {(3aR,4S,7R,7aS)-8-[(4-methylphenyl)sulfonyl]octahydro-2H-4,7-epiminoisoindol-2-yl}(1H-1,2,3-triazol-5-yl)methanone]: 327 nM.

A word on the IC50: it is the point on the concentration scale where inhibition reaches its midpoint.
